Measurements taken from patent publication US20250241923A1, “A DUAL SELECTIVE PI3K DELTA AND GAMMA INHIBITORS AND/OR A SALT-INDUCIBLE KINASE 3 INHIBITOR FOR TREATING SOLID TUMORS” (Incozen Therapeutics Pvt. Ltd, priority 2022, published 2025).

Columns and labels:
[1] = test system: SK-OV-3 ovarian cancer cell lines; test: Anti-proliferative activity with PARP inhibitors, SK-OV-3; type: cell-based; settings: Homo sapiens, single agent talazoparib (3 μM, FIG. 6B), read-out: growth inhibition
[2] = test system: OVCAR-3 ovarian cancer cell lines; test: Anti-proliferative activity with PARP inhibitors, OVCAR-3; type: cell-based; settings: Homo sapiens, single agent talazoparib (0.1 μM, FIG. 6A), read-out: growth inhibition
[3] = Metabolic stability in liver microsomes, rat; type: in vitro ADME
Text: (§1) In in vitro studies using liver microsomes, the metabolic stability of tenalisib followed the rank order of rat>human>dog>monkey>mouse (Table 3).

[4] = Metabolic stability in liver microsomes, dog; type: in vitro ADME
Text: as §1

[5] = test system: SK-OV-3 ovarian cancer cell line; test: Anti-proliferative effect of taxol and Compound (M) (Example 10), SK-OV-3; type: cell-based; settings: Compound (M) 3 μM added to taxol (6 nM, FIG. 7)
SIK3 = SIK3 (Homo sapiens, UniProt Q9Y2K2); test: SIK3 inhibition assay (enzymatic radiometric); type: biochemical; settings: 10 μM ATP
[6] = Metabolic stability in liver microsomes, human; type: in vitro ADME
Text: as §1

[7] = test system: MCF-7 breast cancer cell lines; test: cells; settings: Homo sapiens, MCF7, 72 h, read-out: growth inhibition

Sequence of SIK3 (Q9Y2K2 whole entry): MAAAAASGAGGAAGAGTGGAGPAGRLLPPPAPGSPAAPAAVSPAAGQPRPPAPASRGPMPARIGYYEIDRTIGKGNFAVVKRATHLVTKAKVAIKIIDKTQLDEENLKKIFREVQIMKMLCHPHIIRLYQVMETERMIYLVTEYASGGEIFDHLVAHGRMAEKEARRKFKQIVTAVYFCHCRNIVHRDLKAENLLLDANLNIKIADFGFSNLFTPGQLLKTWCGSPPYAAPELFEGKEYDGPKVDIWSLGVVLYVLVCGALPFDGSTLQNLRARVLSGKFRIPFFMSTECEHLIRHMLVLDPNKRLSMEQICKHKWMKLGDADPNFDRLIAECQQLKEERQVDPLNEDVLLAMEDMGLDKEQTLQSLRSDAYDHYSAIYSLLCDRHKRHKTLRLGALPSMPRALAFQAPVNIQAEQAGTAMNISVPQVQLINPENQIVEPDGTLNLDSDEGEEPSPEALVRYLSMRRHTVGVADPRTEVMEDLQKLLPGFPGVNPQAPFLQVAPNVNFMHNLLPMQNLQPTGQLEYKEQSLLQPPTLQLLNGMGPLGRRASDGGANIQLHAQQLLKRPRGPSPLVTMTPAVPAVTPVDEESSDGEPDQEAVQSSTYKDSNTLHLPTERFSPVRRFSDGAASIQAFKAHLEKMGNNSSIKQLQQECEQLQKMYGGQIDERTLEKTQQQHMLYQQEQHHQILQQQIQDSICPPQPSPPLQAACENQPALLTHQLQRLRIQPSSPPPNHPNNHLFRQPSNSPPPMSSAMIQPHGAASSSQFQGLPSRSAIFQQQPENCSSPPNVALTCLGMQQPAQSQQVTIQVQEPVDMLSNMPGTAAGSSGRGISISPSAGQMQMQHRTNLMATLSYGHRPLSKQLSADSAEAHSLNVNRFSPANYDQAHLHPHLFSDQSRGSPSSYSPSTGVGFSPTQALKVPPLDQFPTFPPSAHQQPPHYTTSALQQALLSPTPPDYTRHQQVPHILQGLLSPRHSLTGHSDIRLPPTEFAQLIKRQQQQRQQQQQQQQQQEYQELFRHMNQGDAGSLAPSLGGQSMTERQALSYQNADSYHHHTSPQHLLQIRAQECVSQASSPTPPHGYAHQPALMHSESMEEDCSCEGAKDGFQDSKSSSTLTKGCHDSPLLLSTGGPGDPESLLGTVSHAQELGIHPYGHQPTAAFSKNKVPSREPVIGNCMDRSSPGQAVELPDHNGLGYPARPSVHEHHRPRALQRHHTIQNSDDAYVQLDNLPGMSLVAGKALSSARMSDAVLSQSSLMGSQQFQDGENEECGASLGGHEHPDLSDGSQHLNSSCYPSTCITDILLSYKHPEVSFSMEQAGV

Cn1ncnc1[C@H]1c2n[nH]c(=O)c3cc(F)cc(c23)N[C@@H]1c1ccc(F)cc1 [talazoparib]
inhibition at 3 µM [1]: 50% | inhibition at 0.1 µM [2]: 40.2%

CC[C@H](Nc1ncnc2[nH]c(O)nc12)c1oc2ccccc2c(=O)c1-c1cccc(F)c1 [Compound M, (S)-3-(3-fluorophenyl)-2-(1-((8-hydroxy-9H-purin-6-yl)amino)propyl)-4H-chromen-4-one]
% Metabolic Stability [3]: 58.0% | % Metabolic Stability [4]: 67.6% | potentiation of the activity of taxol [5]: potentiated | IC50 (SIK3): 237 nM | selectivity over the SIK1 and SIK2 isoforms (SIK3): Selective over | % Metabolic Stability [6]: 58.5%

COc1cccc2c1C(=O)c1c(O)c3c(c(O)c1C2=O)C[C@@](O)(C(=O)CO)C[C@@H]3O[C@H]1C[C@H](N)[C@H](O)[C@H](C)O1 [Doxorubicin]
inhibition at 0.05 µM [7]: 42.8%
